# Experimental data as given in article PMC2248166, “Quantitative peptide binding motifs for 19 human and mouse MHC class I molecules derived using positional scanning combinatorial peptide libraries” (Immunome Research, 2008).
# Key:
# HLA A*3001 = HLA A*3001 (Homo sapiens, UniProt P04439, D140H/D185E/E176W/F33S/G80R/H175R/K168Q/R138E/R41S); assay: biochemical; assay type: binding
# HLA A*3201 = HLA A*3201 (Homo sapiens, UniProt P04439, A270S/D101S/D185E/E176V/E277Q/F133L/G103R/G107R/G231S/H175R/I121M/I218V/I322F/K168Q/L105A/L300P/L318F/M331R/P208A/P217A/Q94H/R106L/R138Q/S129P/T104I/T323A/T345S/V100E/V321M/V358M); assay: biochemical; assay type: binding
# HLA A*6802 = HLA A*6802 (Homo sapiens, UniProt P04439, A269V/D140Y/D185E/E176V/E277Q/E87N/F33Y/G231S/I121R/I166T/I218V/L180W/L300P/L318F/N151K/P208A/P217A/Q86R/R138H/R169H/S129P/T345S/V36M); assay type: binding
# HLA B*0702 = HLA B*0702 (Homo sapiens, UniProt P01889); assay type: binding; details: positional scanning combinatorial 9-mer library; normalized to 1.0 for the best residue at each position
# HLA B*0801 = HLA B*0801 (Homo sapiens, UniProt P01889, A93T/A95T/D138N/E176V/E187T/K202T/Q94N/R180D/S35A/V36M/Y33D/Y91F); assay: biochemical; assay type: binding
# HLA B*1501 = HLA B*1501 (Homo sapiens, UniProt P01889, A329T/A93T/A95T/C349S/D201E/D98Y/E187L/E204Q/E69M/E70A/K202T/N87E/Q94N/R155S/R180W/S121R/S35A/S48A/V306I/V36M/Y140S/Y91S); assay: biochemical; assay type: binding
# HLA B*1503 = HLA B*1503 (Homo sapiens, UniProt P01889, A329T/A93T/A95T/C349S/D201E/D98Y/E187L/E204Q/K202T/N87E/Q94N/R155S/R180L/S121R/S35A/V306I/V36M/Y140S/Y91S); assay: biochemical; assay type: binding
# HLA B*2705 = HLA B*2705 (Homo sapiens, UniProt P01889, D138H/D201E/E176V/E204Q/G107R/H137Y/K202T/N104T/N87E/Q56L/Q94K/R106L/R155S/R180L/S101D/S121N/S48T/Y140D/Y33H/Y91C); assay type: binding; details: positional scanning combinatorial 9-mer library; normalized to 1.0 for the best residue at each position
# HLA B*3501 = HLA B*3501 (Homo sapiens, UniProt P01889, A329T/A93T/A95T/C349S/D201E/D98Y/E176V/E187L/E204Q/E69T/I218V/K202T/L119I/Q94N/R155S/R180L/S121R/S35A/S48A/T118I/V127L/V306I/V36M/Y140S/Y91F); assay type: binding
# HLA B*5101 = HLA B*5101 (Homo sapiens, UniProt P01889, A329T/A93T/A95T/C349S/D138N/D201E/D98Y/E187L/E204Q/E69T/G107R/I218V/K202T/L105A/L119W/N104I/Q94N/R106L/R155S/R180L/S101N/S121T/S35A/S48A/V306I/V36M/Y195H/Y91F); assay type: binding
# HLA B*5301 = HLA B*5301 (Homo sapiens, UniProt P01889, A329T/A93T/A95T/C349S/D201E/D98Y/E176V/E187L/E204Q/E69T/G107R/I218V/K202T/L105A/L119I/N104I/Q94N/R106L/R155S/R180L/S101N/S121R/S35A/S48A/T118I/V127L/V306I/V36M/Y140S/Y91F); assay type: binding
# HLA B*5401 = HLA B*5401 (Homo sapiens, UniProt P01889, A329T/C349S/D138N/D201E/E176V/E187T/E204Q/E69G/I76V/K202T/L119W/R155S/R180L/S121T/S35A/S48A/V127L/V306I/V36M/Y140L); assay type: binding
# HLA B*5801 = HLA B*5801 (Homo sapiens, UniProt P01889, A329T/C349S/D201E/D98Y/E176V/E187L/E204Q/E69T/G107R/I218V/I90N/K202T/L105A/L119I/N104I/N87E/Q89R/Q94S/R106L/R155S/R180L/R86G/S101N/S121R/S35A/S48A/T118I/V127L/V306I/V36M/Y140S/Y91M); assay type: binding
# HLA B*5802 = HLA B*5802 (Homo sapiens, UniProt P01889, A329T/C349S/D201E/D98Y/E176V/E187L/E204Q/E69T/G107R/I218V/I90N/K202T/L105A/N104I/N87E/Q89R/Q94S/R106L/R155S/R180L/R86G/S101N/S121W/S35A/S48A/V127L/V306I/V36M/Y140S/Y91M); assay type: binding
# H-2 D^b = H-2 D^b (Mus musculus, UniProt P01899); assay type: binding
# Sequence of H-2 D^b (P01887 21-119): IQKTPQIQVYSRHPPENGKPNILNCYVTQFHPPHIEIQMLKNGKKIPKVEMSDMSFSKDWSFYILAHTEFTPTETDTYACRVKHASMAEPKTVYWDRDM
# Sequence of H-2 D^b (P01899 25-362): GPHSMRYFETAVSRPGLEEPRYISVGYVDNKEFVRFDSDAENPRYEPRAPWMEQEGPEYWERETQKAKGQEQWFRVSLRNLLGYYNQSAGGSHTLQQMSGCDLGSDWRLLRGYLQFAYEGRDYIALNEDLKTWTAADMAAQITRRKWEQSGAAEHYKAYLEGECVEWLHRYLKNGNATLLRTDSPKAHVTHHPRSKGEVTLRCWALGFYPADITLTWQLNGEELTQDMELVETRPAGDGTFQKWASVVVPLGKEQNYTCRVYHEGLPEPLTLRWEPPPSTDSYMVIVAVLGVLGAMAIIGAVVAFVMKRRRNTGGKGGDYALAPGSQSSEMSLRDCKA
# H-2 D^d = H-2 D^d (Mus musculus, UniProt P01900); assay type: binding
# Sequence of H-2 D^d (P01900 whole entry, looked up): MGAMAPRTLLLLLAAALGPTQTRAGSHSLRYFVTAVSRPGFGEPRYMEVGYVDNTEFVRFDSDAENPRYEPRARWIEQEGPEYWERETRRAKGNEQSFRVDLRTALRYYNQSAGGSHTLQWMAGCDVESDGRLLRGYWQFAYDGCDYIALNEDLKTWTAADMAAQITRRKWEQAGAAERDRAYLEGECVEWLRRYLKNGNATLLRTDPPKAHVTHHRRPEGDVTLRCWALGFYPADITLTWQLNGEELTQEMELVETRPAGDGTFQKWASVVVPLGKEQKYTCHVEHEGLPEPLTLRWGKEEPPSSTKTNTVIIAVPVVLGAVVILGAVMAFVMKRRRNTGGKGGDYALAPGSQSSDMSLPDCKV
# H-2 K^k = H-2 K^k (Mus musculus, UniProt P04223); assay type: binding
# Sequence of H-2 K^k (P01887 21-119): as the sequence (P01887 21-119) above
# Sequence of H-2 K^k (P04223 22-369): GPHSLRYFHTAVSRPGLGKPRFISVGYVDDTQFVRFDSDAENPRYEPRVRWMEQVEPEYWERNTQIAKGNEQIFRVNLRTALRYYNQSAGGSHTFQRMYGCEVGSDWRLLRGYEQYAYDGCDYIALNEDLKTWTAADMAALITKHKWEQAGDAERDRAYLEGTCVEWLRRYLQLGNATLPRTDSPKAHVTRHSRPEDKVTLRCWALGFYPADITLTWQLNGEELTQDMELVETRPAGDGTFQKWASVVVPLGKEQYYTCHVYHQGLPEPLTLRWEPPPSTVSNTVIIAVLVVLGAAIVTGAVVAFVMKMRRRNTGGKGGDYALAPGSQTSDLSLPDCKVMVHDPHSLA
# HLA A*0201 = HLA A*0201 (Homo sapiens, UniProt P04439, D140Y/D185E/D98H/E176V/E277Q/G131W/G231S/I119V/I121R/I166T/I218V/L300P/L318F/N151K/N90K/P208A/P217A/Q86G/Q94H/R138H/R169H/T345S); details: positional scanning combinatorial 9-mer library; normalized to 1.0 for the best residue at each position
sequence,measurement,setting,value
XXWXXXXXX [3064.0059],"Normalized average relative binding affinity (ARB), HLA A*3001",HLA A*3001,0.0080
same,"Normalized average relative binding affinity (ARB), HLA A*3201",HLA A*3201,0.95
same,"Normalized average relative binding affinity (ARB), HLA A*6802",HLA A*6802,0.70
same,"Normalized average relative binding affinity (ARB), HLA B*0702",HLA B*0702,0.14
same,"Normalized average relative binding affinity (ARB), HLA B*0801",HLA B*0801,0.19
same,"Normalized average relative binding affinity (ARB), HLA B*1501",HLA B*1501,0.16
same,"Normalized average relative binding affinity (ARB), HLA B*1503",HLA B*1503,0.35
same,"Normalized average relative binding affinity (ARB), HLA B*2705",HLA B*2705,0.68
same,"Normalized average relative binding affinity (ARB), HLA B*3501",HLA B*3501,0.61
same,"Normalized average relative binding affinity (ARB), HLA B*5101",HLA B*5101,0.47
same,"Normalized average relative binding affinity (ARB), HLA B*5301",HLA B*5301,0.076
same,"Normalized average relative binding affinity (ARB), HLA B*5401",HLA B*5401,1.0
same,"Normalized average relative binding affinity (ARB), HLA B*5801",HLA B*5801,0.29
same,"Normalized average relative binding affinity (ARB), HLA B*5802",HLA B*5802,0.95
same,"Normalized average relative binding affinity (ARB), H-2 Db",H-2 D^b,0.18
same,"Normalized average relative binding affinity (ARB), H-2 Dd",H-2 D^d,0.0028
same,"Normalized average relative binding affinity (ARB), H-2 Kk",H-2 K^k,0.48
same,"Normalized average relative binding affinity (ARB), HLA A*0201",HLA A*0201,0.58
